According to patent US20130324543A1, “REVERSAL OF HIGH BREAST CANCER RISK IN MAMMALS EXPOSED TO ESTROGENIC CHEMICALS IN UTERO BY ADULT EXPOSURE TO HDAC AND DNMT INHIBITORS” (Georgetown University, priority 2012, published 2013):
“Also recorded” adds a separate entry of the source.

How the values were obtained:
mammary gland [1] = experiment: Mammary gland morphology of in utero exposed mice (whole mounts); assay type: in vivo, C57BL/6 mice; details: female mice, PND 27
Description: One of the two #4 abdominal mammary glands was dissected and fixed in Carnoy's fixative and processed into whole mounts as previously described (8). The other #4 abdominal gland was snap frozen in liquid nitrogen and stored in −80° C. for future analysis. One of the two thoracic #2-3 mammary glands was fixed in neutral buffered 10% formalin, embedded in paraffin and processed for histology using routine methods, and the other was snap frozen in liquid nitrogen, also stored in −80° C. for future analysis. Uterus was dissected, and one horn with the ovary and vagina attached was fixed in 10% formalin, embedded in paraffin and processed for histology, and the other horn and one ovary were frozen in liquid nitrogen and stored in −80° C.
To assess possible changes in mammary gland morphology, whole amounts of the 4th abdominal glands obtained on PND 27 were processed as previously described (4, 72). The total number of terminal end buds (TEBs) was counted. Identification of TEBs was based on the guidelines established by Russo and Russo (64). The total area (in pixels) of epithelium of the peripubertal (PND 27) mammary glands was analyzed by using ImageJ software (available through NIH web site) on digitized pictures of mammary whole mounts with ducts manually intensified black against white background (shown as an insert in FIG. 16). Ductal elongation (mammary epithelial outgrowth) on PND 50 was measured as the growth in millimeters from the end of the lymph node to the end of the epithelial tree. All the analyses were done blindly using an Olympus dissecting microscope.

[2] = Puberty onset (vaginal opening) of female mice exposed in utero; assay type: in vivo, C57BL/6 mice; details: female offspring, in utero exposure
Description: To assess possible changes in sexual maturation due to in utero ECD exposures during embryogenesis, the day of puberty onset was recorded, as defined based on vaginal opening (VO) in female mice. The mice were examined once a day starting on PND 21. In sexually mature mice, the stage of estrus cycle was determined based on the cytology of their vaginal smear (sampled by pipetting 20 μl PBS in and out of vagina onto a slide) as judged under the microscope. Stage of estrus cycle was determined for each mouse before necropsy and sample collection.

[3] = Immediate adverse effects of dietary exposure in adult non-pregnant littermates of dams; assay type: in vivo, mice; details: last day of dietary exposure, data not shown
Description: For ethical reasons non-pregnant littermate females were used for blood collection instead of the dams, and the samples were taken on the last day of their dietary exposure. Blood was collected by heart puncture of anesthetized mice prior to euthanasia, and serum was separated by centrifugation (1000×g for 10 min) and stored frozen until hormone measurements.
In addition, possible immediate adverse effects of EE2, BPA and GEN exposure for adult mice were evaluated using the non-pregnant littermates of dams. Their body weights were recorded and the mammary gland morphology examined on the last day of their dietary exposure.

mammary tumors [4] = experiment: MPA/DMBA mammary tumorigenesis in mice exposed in utero to EE2, GEN or BPA (Example 5); assay type: in vivo, C57BL/6 mice
Description: (§1) Additions to the basic diet were as follows: 1) cornstarch [control]; 2) EE2 0.1 ppm; 3) BPA 0.155 ppm; 4) GEN 500 ppm.

[5] = tested on: estrogen receptor alpha (ER-a); experiment: ER-a methylation and expression in mammary glands of in utero E2 exposed rats
Description: A high in utero estrogenic environment increases the risk of developing breast cancer (FIG. 1). Increased risk is associated with greater epithelial cell proliferation and survival during mammary gland development, driven by persistent changes in the mammary transcriptome. How these transcriptional changes are initiated and maintained is unclear. […] We then determined whether estrogen receptor alpha (ER-a) is methylated in the E2 exposed rats. […] These mechanisms could include non-coding microRNAs (miRNAs) which are essential for early development and which inhibit expression of their target genes. Since several miRNAs are known to be suppressed by E2 in MCF-7 human breast cancer cells (Maillot et al. Cancer Res 2009), we determined whether persistent changes in miRNA expression may be seen in the adult mammary glands of rats exposed to E2 in utero. miRNAs were measured using applied Biosystems TaqManR Array Rodent MicroRNA.

mammary gland [6] = experiment: Mammary gland morphology and TEB number after maternal E2 or high fat diet (FIG. 8, 11); assay type: in vivo, rats
Description: exposures during pregnancy: […] Statistical analysis was done using ANOVA followed by between group comparisons using Tukey test. […] TEBs are the sites which give rise to malignant mammary tumors in rats; similar structures in the human breast-terminal ductal lobular units-give rise to 90% of human breast cancers.

[7] = tested on: MCF-7 breast cancer cells; details: MCF-7 cells; cited from earlier work
mammary tumors [8] = experiment: Acquired tamoxifen (TAM) resistance of mammary tumors in in utero exposed rats; assay type: in vivo; details: 14-week follow-up, 7% in the control group
PcGTs = experiment: Microarray expression of PcGTs in mammary glands of in utero E2 exposed rats; assay type: in vivo; details: PND 50
mammary tumors [9] = experiment: Mammary tumorigenesis in F1 rats exposed to E2 in utero (FIG. 7); assay type: in vivo; details: F1 generation exposed in utero vs controls
DNMT1 = DNMT1 mRNA expression (qRT-PCR) in mouse mammary glands and tumors; assay type: in vivo; details: in utero exposure vs control mice
Description: Total RNA was extracted using an RNeasy lipid mini kit (Qiagen, CA), according to manufacturer's instructions. One […] of total RNA per sample was used as a template for oligo-dT primed cDNA synthesis with a Supterscript reverse transcriptase, using Taqman Reverse Transcription kit (Applied Biosystems, CA). The cDNA samples served then as templates for quantitative real time PCR analysis with specific primers for the target gene using QuantiTect SYBR green PCR kit (Qiagen Inc., Valencia, Calif.) and an ABI Prism 7900 Sequence Detection System. Each sample was run in triplicate on a 384-well plate, and the qPCR run was repeated twice. The Ct values were averaged from the triplicates for each sample. To normalize the target gene expression the ratio to control RNA was calculated, i.e. the averages of the Ct triplicates from the Dnmt1 gene were divided by the average of the triplicates from the 18S gene. To determine the fold change of the target gene expression the results are presented as 2^ΔCt, where ΔCt=CT^target−Ct^18S.
The primer sequences for m18S rRNA were as previously published by Wang et al. (27).
(§2) Mammary tumor latency was compared with the final tumor burden in utero EE2 and GEN exposed mice to control mice, and in utero EE2 and GEN exposed mice to control mice exposed to HDAC+DNMT inhibitors separately; analysis was done using one-way ANOVA. Cumulative tumor burden during 16 weeks of tumor monitoring in the three groups, separately in those mice not given HDAC+DNMT inhibitors and those treated with the epigenetic drugs, was analysed using repeated measures one-way ANOVA. Log rank analysis was performed to compare mammary tumor incidence in the control and in utero EE2 and GEN exposed mice, again separately in those mice not given HDAC+DNMT inhibitors and those treated with the epigenetic drugs. Data for changes in DNMT1 expression among the groups in the mammary glands and tumors were assessed using two-way ANOVA, followed by Fisher LSD test

[10] = Body weight and growth of in utero exposed pups; assay type: in vivo, C57BL/6 mice; details: in utero exposure
Description: as §1

mammary tumors [11] = experiment: MPA/DMBA-induced mammary tumorigenesis in mice exposed in utero to EE2 or GEN, with or without adult HDAC+DNMT inhibitors
Description: Time pregnant C57BL/6 female mice were obtained from Harlan (Harlan-Teclad, USA) on gestation day 6, and were randomly assigned into three groups on the following day (gestation day 7). The basic diet formulation in the study was a semi-purified AIN93G (the American Institute of Nutrition) modified to replace soy oil for corn oil; all the diets of the three treatment groups were also purchased from Harlan. The diets were isocaloric, as ethinyl estradiol (EE2) or genistein (GEN) were added in the diet at the expense of comstarch. Additions to the basic diet were as follows: 1) EE2 0.1 ppm, and 2) GEN 500 ppm. EE2 was purchased from Sigma Chemicals (St. Louis, Mo., USA), and GEN was a gift from Dr. William Helferich (University of Illinois, Urbana, Ill., USA).
The pregnant dams were fed these diets until the day of the delivery of their pups (Post Natal Day 0, PND 0). Starting on PND 0, all mice were fed the control diet until the end of the study. Female mice born from the dams fed with the different above mentioned diets were used in the subsequent studies. For study outline, see FIG. 12. Animals were housed in a temperature- and humidity-controlled room under a 12-hour light-dark cycle. All animal procedures were approved by the Georgetown University Animal Care and Use Committee, and the experiments were performed following the National Institutes of Health guidelines for the proper and humane use of animals in biomedical research.
Mammary tumors were induced by administration of a subcutaneous injection of Medroxyprogesterone Acetate (MPA) to mice at 6 weeks of age, followed by administration of 1 mg 7,12-dimethylbenz(a)anthracene (DMBA) (Sigma, St. Louis, Mo.) weekly for four weeks (weeks 7, 8, 9, 10) (23). The carcinogen was dissolved in corn oil and administered by oral gavage in a volume of ca. 0.1 ml.
One week after the last dose of DMBA was administered, some of the mice were started on hydralazine (5 mg/kg/day) and valproic acid treatments (1.16 g/kg/day) treatments.
The two compounds were given in a drinking water, which was prepared fresh twice a week. The doses were chosen based on the literature (24-26). The number of animals in each group is as follows: Control n=18, Control given HDAC+DNMT inhibitors n=9, EE2 n=9, EE2 given HDAC+DNMT inhibitors n=6, GEN n=14, and GEN given HDAC+DNMT inhibitors n=8.
Mice were examined for mammary tumors by palpation once per week. Tumor growth was monitored for 16 weeks after the last dose of DMBA administration. During the follow-up, animals in which tumor burden approximated 10% of total body weight were euthanized, as required by the ethical guidelines of our institution. All surviving animals were sacrificed at that point for sample collection. The end-points for tumor data analysis were (i) latency to tumor appearance, (ii) the number of animals with tumors (tumor incidence), and (iii) the cumulative tumor area (tumor burden). The latter was achieved by adding the total tumor area per group each week and dividing it with the number of mice in the group.
as §2

CC(C)(c1ccc(O)cc1)c1ccc(O)cc1 [BPA, Bisphenol A]
total epithelial area of the glands (mammary gland [1]): significantly increased
puberty onset / vaginal opening [2]: no effect
body weight or mammary epithelial development [3]: No significant differences
cumulative tumor burden compared to the group exposed to control diet in utero (mammary tumors [4]; C57BL/6, mouse, in vivo): ~1.5 times
mammary tumorigenesis (onset of tumor growth and cumulative tumor burden) (mammary tumors [4]; mouse, in vivo): Enhanced mammary tumorigenesis

C[C@]12CC[C@@H]3c4ccc(O)cc4CC[C@H]3[C@@H]1CC[C@@H]2O [E2, estradiol]
expression of ER-a [5]: up-regulated
number of TEBs (mammary gland [6]; 1st generation offspring, postnatal day 21): increased
mammary gland morphology (parenchyma, TEBs, ductal elongation, size) (mammary gland [6]; 21-day-old rats exposed to 10 μg in utero vs control rats): contain a larger parenchyma and more TEBs, exhibit more advanced ductal elongation, and are larger
expression of the same miRNAs [7]: down-regulated
acquired resistance to TAM (mammary tumors [8]): 50%
Fold down-regulated in E2 group (PcGTs; Actn1, alpha 1 actin): −5.63 (p < 0.03) Fold
Fold down-regulated in E2 group (PcGTs; Ccl2, chemokine (C-C motif) ligand 2): −1.81 (0.00) Fold
Fold down-regulated in E2 group (PcGTs; Ckm, muscle creatine kinase): −7.68 (p < 0.01) Fold
Fold down-regulated in E2 group (PcGTs; H19/Pro2605, H19fetal liver mRNA (imprinted gene)): −3.28 (p < 0.03) Fold
Fold up-regulated in E2 group (PcGTs; Hmgcs2, 3-hydroxy-3-methylglutaryl-Coenzyme A synthase 2): 2.46 (p < 0.00) Fold
Fold up-regulated in E2 group (PcGTs; Lep, Leptin): 1.59 (p < 0.02) Fold
Fold down-regulated in E2 group (PcGTs; Myh13, heavy polypeptide 13 myosin): −6.08 (p < 0.01) Fold
Fold down-regulated in E2 group (PcGTs; Myl2, light polypeptide 2 myosin): −10.19 (p < 0.02) Fold
Fold up-regulated in E2 group (PcGTs; Pdk4, puruvate dehydrogenase kinase isoenzyme 4): 1.82 (p < 0.02) Fold
Fold down-regulated in E2 group (PcGTs; Pvnlb, parvalbumin): −8.64 (p < 0.03) Fold
Mammary tumor incidence (mammary tumors [9]): higher
total tumor burden (mammary tumors [9]): also higher
tumor multiplicity (mammary tumors [9]): also higher

O=c1c(-c2ccc(O)cc2)coc2cc(O)cc(O)c12 [GEN, Genistein]
total epithelial area of the glands (mammary gland [1]): nearly significantly increased
DNMT1 expression in mammary tumors (DNMT1): significantly lower
expression of DNMT1 in mammary glands (DNMT1): a similar increase; also recorded: an increase in DNMT1 expression; also recorded: persistent up-regulation
puberty onset / vaginal opening [2]: delayed vaginal opening
puberty onset / vaginal opening ([2]; listed as genistein): delayed puberty onset
birthweight, or postnatal weight development [10]: did not alter
mammary tumorigenesis (mammary tumors [11]; in utero exposed offspring compared to the controls): increased mammary tumorigenesis
Latency for first tumor to develop (mammary tumors [11]; in utero exposure (EE2 0.1 ppm or GEN 500 ppm in dam's diet) vs control mice): significantly shorter
Mammary tumor incidence (mammary tumors [11]; in utero exposure vs control mice): significantly higher
Final tumor burden per mouse (mammary tumors [11]; in utero exposure vs controls): significantly higher
body weight or mammary epithelial development [3]: No significant differences
cumulative tumor burden compared to the group exposed to control diet in utero (mammary tumors [4]; in utero exposure): approximately four
mammary tumorigenesis (onset of tumor growth and cumulative tumor burden) (mammary tumors [4]; in utero exposure compared to controls): Enhanced mammary tumorigenesis
